Test results taken from paper PMC7194175 (Nature plants, 2019).

Key:
CYP72A9 = molecular target: T1, CYP72A9 (Arabidopsis thaliana, UniProt F4IW82); experiment: feeding of recombinant WAT11 yeast culture, GC-MS of products; format: cell-based; conditions: AtCPR1 co-expressed, 30 °C, 16 h
T1 sequence (F4IW82 1-508): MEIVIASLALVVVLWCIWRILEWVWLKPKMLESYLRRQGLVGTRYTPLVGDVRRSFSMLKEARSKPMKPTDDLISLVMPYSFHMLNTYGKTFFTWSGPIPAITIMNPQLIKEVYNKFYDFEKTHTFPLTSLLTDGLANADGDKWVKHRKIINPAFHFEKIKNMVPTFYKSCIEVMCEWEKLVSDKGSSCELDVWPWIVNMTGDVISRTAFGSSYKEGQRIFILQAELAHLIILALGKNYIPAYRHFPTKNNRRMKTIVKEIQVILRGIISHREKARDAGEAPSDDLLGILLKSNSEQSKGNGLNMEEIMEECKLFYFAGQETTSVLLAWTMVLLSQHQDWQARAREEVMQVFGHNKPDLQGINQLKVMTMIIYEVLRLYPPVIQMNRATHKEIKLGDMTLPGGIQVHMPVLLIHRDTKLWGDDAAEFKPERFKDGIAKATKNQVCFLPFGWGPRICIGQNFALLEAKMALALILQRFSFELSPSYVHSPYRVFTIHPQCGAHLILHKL

CYP72A15 = molecular target: T2, CYP72A15 (Arabidopsis thaliana, UniProt Q9LUC5); experiment: as above; format: cell-based; conditions: AtCPR1 co-expressed; 30 °C, 16 h
T2 sequence (Q9LUC5 1-512): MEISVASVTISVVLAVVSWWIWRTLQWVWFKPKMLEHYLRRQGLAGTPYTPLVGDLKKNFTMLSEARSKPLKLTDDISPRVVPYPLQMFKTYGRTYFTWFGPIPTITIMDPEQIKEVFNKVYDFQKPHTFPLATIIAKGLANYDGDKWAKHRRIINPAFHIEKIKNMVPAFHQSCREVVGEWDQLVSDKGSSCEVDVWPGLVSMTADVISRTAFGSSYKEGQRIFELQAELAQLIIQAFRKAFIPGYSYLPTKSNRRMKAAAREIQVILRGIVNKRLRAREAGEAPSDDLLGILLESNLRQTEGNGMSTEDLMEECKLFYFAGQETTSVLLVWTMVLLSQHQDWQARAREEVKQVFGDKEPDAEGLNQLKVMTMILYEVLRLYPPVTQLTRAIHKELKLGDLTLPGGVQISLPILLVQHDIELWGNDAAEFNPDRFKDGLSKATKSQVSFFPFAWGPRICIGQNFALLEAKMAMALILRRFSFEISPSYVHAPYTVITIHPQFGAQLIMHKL

Row | Compound | feeding of recombinant WAT11 yeast culture, GC-MS of products (CYP72A9; 13-hydroxylation to GA1) | feeding of recombinant WAT11 yeast culture, GC-MS of products (CYP72A15) | feeding of recombinant WAT11 yeast culture, GC-MS of products (CYP72A9; 13-hydroxylation to GA53)
1 | C=C1C[C@]23C[C@H]1CC[C@H]2[C@@]12CC[C@H](O)[C@@](C)(C(=O)O1)[C@H]2[C@@H]3C(=O)O [GA4] | hydroxylating GA4, GA9, and GA12 at C13 position to produce GA1, GA20, and GA53 |  | 
2 | C=C1C[C@]23C[C@H]1CC[C@H]2[C@]1(C)CCC[C@@](C)(C(=O)O)[C@H]1[C@@H]3C(=O)O [GA12] |  | utilized ent-kaurenoic acid, GA12 and GA9 as substrates rather than GA4 | hydroxylating GA4, GA9, and GA12 at C13 position to produce GA1, GA20, and GA53
